Some test systems named below: OVCAR-4 ovarian; OVCAR-8 ovarian; SNB-19 CNS; SNB-75 CNS; CCRF-CEM leukemia; LOX IMVI melanoma; RXF 393 renal; HCT-116 colon; NCI-H460 lung; NCI-H226 lung.
What all share (assay): growth of human tumour cells (NCI), 48 h

“And” between values parts separate entries of the source, which are not always exact repeats. Equal values may be shown once.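 Dose response: 5 concentrations. Exposure: 48 h. Format: 96-well plates. Endpoint: linear interpolation; highest concentration if not reached. Abbreviation: GI50, concentration required for 50% inhibition of growth. TGI: concentration producing complete growth inhibition.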

In the case of `Cn1cc(-c2nc(N[C@@H]3CCCC[C@@H]3N)c(F)c3c2C(=O)NC3)cn1`, the GI50 with OVCAR-4 ovarian is 15.4 µM and 19.6 µM; with OVCAR-8 ovarian, 10.8 µM and 12.4 µM; with SNB-19 CNS, 27.3 µM and 29 µM; in the assay on SNB-75 CNS, 2.14 µM and 2.87 µM; in the assay with CCRF-CEM leukemia, 5.09 µM and 5.26 µM; in the assay with LOX IMVI melanoma it was 2.95 µM and 3.81 µM. In addition, the GI50 was 1.99 µM and 2.47 µM in the assay on RXF 393 renal; 3.66 µM and 4.67 µM in the assay on HCT-116 colon; 5.87 µM and 6.08 µM in the assay with NCI-H460 lung; 2.93 µM and 3.83 µM in the assay on NCI-H226 lung. Also, the TGI with OVCAR-4 ovarian was above 100 µM; in the assay with OVCAR-8 ovarian, 66.1 µM and > 75.3 µM; with SNB-19 CNS, above 100 µM; in the assay with SNB-75 CNS, 11.7 µM and 16.5 µM; in the assay with CCRF-CEM leukemia, above 100 µM; in the assay on LOX IMVI melanoma, 14.1 µM and 16.2 µM. Also, the TGI in the assay on RXF 393 renal is 10.5 µM and 12.5 µM; in the assay with HCT-116 colon it was 47.7 µM and > 83.3 µM; in the assay with NCI-H460 lung it was 63.2 µM and > 100 µM; in the assay on NCI-H226 lung, 23.9 µM and 49.7 µM.

`O=C(/C=C/C1C(=O)NC(=O)NC1=O)CC(=O)C(=O)Nc1cc(Cl)c(Cl)cc1Cl`: the TGI with OVCAR-4 ovarian, with OVCAR-8 ovarian, in the assay with SNB-19 CNS, with SNB-75 CNS, in the assay with CCRF-CEM leukemia and with LOX IMVI melanoma was above 100 µM throughout. Moreover, the TGI with RXF 393 renal, in the assay on HCT-116 colon, with NCI-H460 lung and in the assay with NCI-H226 lung was above 100 µM in each case.

For `Cc1cc2nc3c4ccc(Br)cc4n(CCN(C)C)c3nc2cc1C`, the GI50 in the assay on OVCAR-4 ovarian is 1.62 µM; with OVCAR-8 ovarian it was 1.24 µM; in the assay on SNB-19 CNS, 1.6 µM; with SNB-75 CNS it was 1.82 µM; with CCRF-CEM leukemia it was 1.5 µM; with LOX IMVI melanoma it was 0.532 µM. The GI50 with RXF 393 renal was 1.31 µM; with HCT-116 colon it was 0.451 µM; in the assay on NCI-H460 lung, 1.26 µM; in the assay with NCI-H226 lung, 2.46 µM. The TGI is 7.49 µM in the assay on OVCAR-4 ovarian; 11.8 µM with OVCAR-8 ovarian; 7.52 µM in the assay with SNB-19 CNS; 5.19 µM with SNB-75 CNS; 10.5 µM in the assay with CCRF-CEM leukemia; 1.9 µM in the assay on LOX IMVI melanoma. The TGI with RXF 393 renal is 3.01 µM; with HCT-116 colon, 2.14 µM; in the assay with NCI-H460 lung, 3.95 µM; with NCI-H226 lung it was 11.1 µM.

Regarding `c1ccc(-c2ccnc3c2ccc2c(-c4ccccc4)ccnc23)cc1`, the TGI was found to be 12.7 µM in the assay on OVCAR-4 ovarian; 4.75 µM in the assay on OVCAR-8 ovarian; 13.9 µM with SNB-19 CNS; 9.43 µM in the assay on SNB-75 CNS; 2.84 µM with CCRF-CEM leukemia; 14.8 µM in the assay with LOX IMVI melanoma. For the same compound, the TGI was determined as 6.05 µM in the assay with RXF 393 renal, 10.4 µM in the assay on HCT-116 colon, 7.28 µM in the assay with NCI-H460 lung and 4.76 µM in the assay on NCI-H226 lung.

As for `CC(C)(C)Sc1nnc(SC(C)(C)C)c2c(=O)[nH]nc(SC(C)(C)C)c12`, the TGI with OVCAR-4 ovarian stood at 10.5 µM; in the assay with OVCAR-8 ovarian it was 22.1 µM; with SNB-19 CNS, 23.8 µM; with SNB-75 CNS, 24.3 µM; in the assay with CCRF-CEM leukemia, 28.1 µM; in the assay with LOX IMVI melanoma it was 24.2 µM. In addition, the TGI in the assay on RXF 393 renal stood at 14.2 µM; in the assay with HCT-116 colon it was 15.9 µM; with NCI-H460 lung it was 19.5 µM; with NCI-H226 lung, 28.5 µM.

As to `C/C(=N\NS(=O)(=O)c1ccc([N+](=O)[O-])cc1)c1ccc[n+]([O-])n1`, the TGI in the assay with OVCAR-4 ovarian is 5.69 µM; in the assay on OVCAR-8 ovarian it was 6.61 µM; in the assay on SNB-19 CNS, 99.1 µM; in the assay with SNB-75 CNS it was 5.36 µM; in the assay on CCRF-CEM leukemia, above 30.1 µM; with LOX IMVI melanoma it was 2.15 µM. The TGI turned out to be 2.67 µM in the assay with RXF 393 renal, 3.9 µM with HCT-116 colon, 2.75 µM in the assay with NCI-H460 lung and 3.91 µM in the assay with NCI-H226 lung.

For the compound `COc1ccc(-c2nc(C(=O)c3ccccc3)n(CC(=O)c3ccc(Cl)cc3)c2-c2ccc(OC)cc2)cc1`, the GI50 with OVCAR-4 ovarian, with OVCAR-8 ovarian, in the assay with SNB-19 CNS, with SNB-75 CNS, in the assay with CCRF-CEM leukemia and in the assay on LOX IMVI melanoma was above 100 µM in each case. Besides, the GI50 with RXF 393 renal, in the assay with HCT-116 colon, in the assay on NCI-H460 lung and with NCI-H226 lung was above 100 µM in each case. Moreover, the TGI in the assay with OVCAR-4 ovarian, in the assay on OVCAR-8 ovarian, in the assay with SNB-19 CNS, in the assay with SNB-75 CNS, in the assay with CCRF-CEM leukemia and in the assay with LOX IMVI melanoma was above 100 µM each time. The TGI in the assay on RXF 393 renal, in the assay with HCT-116 colon, in the assay with NCI-H460 lung and with NCI-H226 lung was above 100 µM in each case.

The record behind these values is PubChem BioAssay (NCI).
